The record followed here is PMC8842743 (Journal of Alzheimer's Disease Reports, 2022).

The target of the assay is T1, Renin recombinant human enzyme (Homo sapiens, UniProt P00797).
T1 sequence (P00797 67-406): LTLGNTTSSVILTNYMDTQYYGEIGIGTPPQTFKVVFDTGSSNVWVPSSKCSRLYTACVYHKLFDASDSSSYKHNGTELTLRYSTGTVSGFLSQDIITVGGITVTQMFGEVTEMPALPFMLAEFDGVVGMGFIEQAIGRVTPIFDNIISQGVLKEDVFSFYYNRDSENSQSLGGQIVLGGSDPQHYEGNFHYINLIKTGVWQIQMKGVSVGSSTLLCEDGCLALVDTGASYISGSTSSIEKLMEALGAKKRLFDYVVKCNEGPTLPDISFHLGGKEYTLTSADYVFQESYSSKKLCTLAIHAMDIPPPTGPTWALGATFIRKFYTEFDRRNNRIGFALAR
Kind of assay: Renin FRET assay. In kind it is biochemical. Particulars: read-out: Renin FRET Assay Absolute IC50; n = 1/2; value (SD).

Some results are limits rather than exact numbers.

On to `COc1cnc(C(=O)Nc2ccc(F)c([C@]34CN(c5ncc(F)cn5)C[C@H]3CSC(N)=N4)c2)cn1` [LY3202626], for which the IC50 (commonly the point on the concentration scale where inhibition reaches its midpoint) is > 14 µM.
